Source: patent US5942521A, “Quinolinone derivative and anti-allergic agent with said quinolinone derivative as the active ingredient” (Dainippon Ink and Chemicals, Inc., priority 1996, dated 1999)

Key:
Assay type in all cases: in vivo
[1] = tested on: contact dermatitis induced by picryl chloride; assay: Effect on contact dermatitis induced by picryl chloride in mice; conditions: Mus musculus, po, read-out: Inhibition (%) of increase of ear thickness; for inhibition in vivo at 20 mg/kg: test compounds, 20 mg/kg p.o. 12 hours after challenge, ear thickness at 24 hours
Procedure: Effect on contact dermatitis induced by picryl chloride in mice
The delayed type hypersensitization is inhibited by steroid, but can not be effected by known anti-allergic agents. In the following, the method of the pharmacological test will be explained.
Method: Mice, shaved their abdominal skin on previous day, were immunized by applying 0.1 ml of acetone containing 7 mg of picryl chloride to the skin of the abdomen. 7 days after immunization, the thickness of the ear was measured with a dial thickness gauge, then mice were challenged by painting […] of 1% picryl chloride olive oil solution to each side skin of left ear. 24 hours after challenge, the thickness of the left ear was measured again. The compounds of the present invention (test compounds) suspended in 0.5% MC were forcibly administered orally at a dose of 20 mg/kg 12 hours after challenge. As vehicle control group, only 0.5% MC solution was administered orally, and as positive control group, Prednisolone, steroid hormone, was administered orally at a dose of 10 mg/kg and as negative control group, Tranilast was administered orally at a dose of 200 mg/kg.
Increase (%)=(A-B)/B×100 (Equation 2)
A: thickness of the ear at 24 hours after challenge
B: thickness of the ear before challenge
Inhibition (%)=(C-D)/C×100 (Equation 3)
C: The increase (%) in vehicle control group
D: The increase (%) in test compounds group, positive control group

[2] = tested on: immediate type asthmatic response; assay: Effect on experimental immediate type asthma model in guinea pigs; conditions: airway resistance 1 minute after challenge
From the text: (§1) Effect on experimental immediate and delayed type asthma model in guinea pigs
(§2) The asthma is typical allergic disease and we carried out this pharmacological test by experimental asthmatic model in guinea pigs in order to confirm that the compounds of the present invention, compound 21, 41 and 46, suppress immediate and delayed type asthmatic response. In the following, the method of the pharmacological test will be explained.
(§3) Method: Male hartley guinea pigs were sensitized by exposured aerosolized ovalbumine (OVA) (1% in saline) for 10 minutes per a day at eight times. The aerosol was generated by an ultrasonic nebulizer (NE-U12, Omuron inc.). One week after final sensitization, the animals were challenged with inhalation of OVA (2% in saline) for 5 minutes. The animals were pretreated with metyrapone (10 mg/kg, i.v.) at 1 and 4 hours before the challenge, and pyrilamine (10 mg/kg, i.p.) at 30 minutes before the challenge. airway resistance in the conscious animals were measured for 1 minute with PULMOS-1(made in Medical Interface Project Station Inc.) at 1 minute, 2, 4, 5, 6, 7, 8 and 23 to 24 hours after the challenge. Compound 21, 41 and 46 (test compound) suspended in 0.5% methylcellulose (MC) solution were given orally at doses of 5, 10 and 20 mg/kg 1 hour before and 3 hours after the challenge. As a positive control group, Prednisolone was given orally at a dose of 10 mg/kg 2 hours and 16 hours before the challenge. As vehicle control group, only 0.5% MC solution was given orally.
(§4) The evaluation of the effect of the compounds on immediate and delayed type asthmatic response was undertaken with percentage of change in airway resistance 1 minute after the challenge and the area under the response curve for percentage of change in airway resistance between 4 and 8 hours after the challenge, respectively. The inhibition (%) of the compounds for immediate and delayed type asthmatic response was calculated according to equation 4 and the result was shown in table 3. Each experimental group consisted of 8 guinea pigs.
(§5) Inhibition (%)=(A-B)/A×100 (equation 4)
(§6) A: percentage of change in airway resistance in vehicle control group
(§7) B: percentage of change in airway resistance in test compound group or positive control group

[3] = tested on: delayed type asthmatic response; assay: Effect on experimental delayed type asthma model in guinea pigs; conditions: AUC of airway resistance 4-8 hours after challenge
From the text: as §1, §2, §3, §4, §5, §6, §7

[4] = tested on: passive cutaneous anaphylaxis (PCA) reaction; assay: Effect on homologous passive cutaneous anaphylaxis (PCA) reaction in rats; conditions: Rattus norvegicus, po, 0.5 h; test compounds, 100 mg/kg p.o., 1 hour before induction of anaphylaxis, male wistar rats
Procedure: Effect on homologous passive cutaneous anaphylaxis (PCA) reaction in rats
This experimental animal model is caused by immediate type allergic reaction, namely, antigen-antibody reaction. In the following, the method of this pharmacological test will be explained.
Method: Male wistar rats (9 weeks old) were intradermally administered 0.05 ml of anti-serum against dinitrophenylated ascaris (DNP-As) into two sites on the shaved dorsal skin. 48 hours later, aminoquinolinone derivatives (test compounds) suspended in 0.5% methylcellulose (MC) were given orally at a dose of 100 mg/kg to the animals. 1 hour after administration of Test compounds, the animals were induced anaphylaxis by injection of saline (1 ml) dissolving 1 mg of trinitrophenylated ascaris (TNP-As) and 5 mg of Evans Blue into the tail vein of the animals. 30 minutes after induction of anaphylaxis, animals were anesthetized by ether and killed by bleeding, and were flayed dorsal skin. The leakage of dye was assessed by measuring the diameter (mean of shortest and longest diameter) of the blue spot on the inside surface of dorsal skin. As vehicle control group, only 0.5% MC solution was administered orally, and as positive control group, Tranilast suspended in 0.5% MC were administered orally at a dose of 200 mg/kg to the animals with the same method as the test compounds groups, The inhibition (%) of PCA reaction was calculated according to equation 1 and the result was shown in Table 1. Each experimental group consisted of 5 rats.
In the conditions of this experiment, it was considered that the compound, which inhibited PCA reaction by over forty (40) percent against that in vehicle control group, was evidently effective for immediate type allergy.
Inhibition (%)=(A-B)/A×100 (Equation 1)
A: leakage of dye in vehicle control group
B: leakage of dye in test compound group or positive control group

[5] = Prednisolone 10 mg/kg p.o. 2 hours and 16 hours before challenge
[6] = 5 mg/kg p.o. 1 hour before and 3 hours after challenge
[7] = 10 mg/kg p.o. 1 hour before and 3 hours after challenge
[8] = 20 mg/kg p.o. 1 hour before and 3 hours after challenge

Structure (SMILES) | inhibition in vivo at 10 mg/kg ([1]; 24 h) | inhibition (%), immediate type asthma [2, 5] | inhibition (%), delayed type asthma [3, 5] | inhibition in vivo at 100 mg/kg [4] | inhibition in vivo at 20 mg/kg [1] | inhibition (%), immediate type asthma [2, 6] | inhibition (%), immediate type asthma [2, 7] | inhibition (%), immediate type asthma [2, 8] | inhibition (%), delayed type asthma [3, 6] | inhibition (%), delayed type asthma [3, 7] | inhibition (%), delayed type asthma [3, 8]
C[C@]12C=CC(=O)C=C1CC[C@@H]1[C@@H]2[C@@H](O)C[C@@]2(C)[C@H]1CC[C@]2(O)C(=O)CO [Prednisolone, reference compound] | 53% | 35% | 51% |  |  |  |  |  |  |  | 
CCCCCCOc1c(O)c2ccc(N)cc2n(C)c1=O [compound 21, 7-amino-3-hexyloxy-4-hydroxy-1-methyl-2(1H)-quinolinone] |  |  |  | 60% | 51% | 20% | 30% | 31% | 23% | 39% | 48%
CCCCCCCCOc1c(O)c2ccc(NC(=O)/C=C/c3cc(OC)c(O)c(OC)c3)cc2n(C)c1=O [compound 41, 7-(3,5-dimethoxy-4-hydroxycinnamoylamino)-3-octyloxy-4-hydroxy-1-methyl-2(1H)-quinolinone] |  |  |  | 53% | 50% | 26% | 31% | 43% | 39% | 54% | 84%
CCCCCCCCOc1c(O)c2ccc(NC(=O)/C=C/c3ccc(O)c(OC)c3)cc2n(C)c1=O [compound 45, 7-(4-hydroxy-3-methoxycinnamoylamino)-3-octyloxy-4-hydroxy-1-methyl-2(1H)-quinolinone] |  |  |  | 41% | 44% |  |  |  |  |  | 
C=CCNc1ccc2c(O)c(OCCCCCCCC)c(=O)n(C)c2c1 [compound 46, 7-(2-propenylamino)-3-octyloxy-4-hydroxy-1-methyl-2(1H)-quinolinone] |  |  |  | 46% | 55% | 30% | 28% | 33% | 32% | 44% | 53%
CCCCCCCCOc1c(O)c2ccc(NCc3ccccc3)cc2n(C)c1=O [compound 47, 7-benzylamino-3-octyloxy-4-hydroxy-1-methyl-2(1H)-quinolinone] |  |  |  | 40% | 48% |  |  |  |  |  | 
CCCCCCCCOc1c(O)c2ccc(NCC=C(C)C)cc2n(C)c1=O [compound 48, 7-prenylamino-3-octyloxy-4-hydroxy-1-methyl-2(1H)-quinolinone] |  |  |  | 50% | 53% |  |  |  |  |  | 
CCCCCCCCOc1c(O)c2ccc(NC(=O)c3ccccc3)cc2n(C)c1=O [compound 49, 7-benzoylamino-3-octyloxy-4-hydroxy-1-methyl-2(1H1)-quinolinone] |  |  |  | 46% | 43% |  |  |  |  |  | 
